Reference: paper doi:10.1101/2021.03.24.436736v2 (biorxiv, 2023)

Tests used:
PxRDL1 = target: T1, PxRDL1 (Plutella xylostella, UniProt C0L7I5); assay: two-electrode voltage clamp, Xenopus laevis oocytes; type: cell-based
T1 sequence (C0L7I5 26-485): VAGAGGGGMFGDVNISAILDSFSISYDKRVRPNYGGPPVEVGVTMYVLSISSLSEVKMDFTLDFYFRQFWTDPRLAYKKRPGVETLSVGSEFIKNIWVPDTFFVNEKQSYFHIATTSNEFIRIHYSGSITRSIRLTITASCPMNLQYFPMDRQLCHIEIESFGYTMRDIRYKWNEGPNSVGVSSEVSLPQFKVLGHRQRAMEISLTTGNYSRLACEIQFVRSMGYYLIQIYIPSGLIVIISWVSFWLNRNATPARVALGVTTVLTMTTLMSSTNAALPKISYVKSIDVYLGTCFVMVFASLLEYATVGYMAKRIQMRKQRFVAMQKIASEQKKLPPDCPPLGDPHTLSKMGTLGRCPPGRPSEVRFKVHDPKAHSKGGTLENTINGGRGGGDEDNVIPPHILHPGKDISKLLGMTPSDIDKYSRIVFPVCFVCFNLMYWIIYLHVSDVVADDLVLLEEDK

PxRDL2 [1] = target: T2, PxRDL2 (Plutella xylostella, UniProt C0L7I7); assay: cell-based; design: species or system Xenopus laevis oocytes
T2 sequence (C0L7I7 30-520): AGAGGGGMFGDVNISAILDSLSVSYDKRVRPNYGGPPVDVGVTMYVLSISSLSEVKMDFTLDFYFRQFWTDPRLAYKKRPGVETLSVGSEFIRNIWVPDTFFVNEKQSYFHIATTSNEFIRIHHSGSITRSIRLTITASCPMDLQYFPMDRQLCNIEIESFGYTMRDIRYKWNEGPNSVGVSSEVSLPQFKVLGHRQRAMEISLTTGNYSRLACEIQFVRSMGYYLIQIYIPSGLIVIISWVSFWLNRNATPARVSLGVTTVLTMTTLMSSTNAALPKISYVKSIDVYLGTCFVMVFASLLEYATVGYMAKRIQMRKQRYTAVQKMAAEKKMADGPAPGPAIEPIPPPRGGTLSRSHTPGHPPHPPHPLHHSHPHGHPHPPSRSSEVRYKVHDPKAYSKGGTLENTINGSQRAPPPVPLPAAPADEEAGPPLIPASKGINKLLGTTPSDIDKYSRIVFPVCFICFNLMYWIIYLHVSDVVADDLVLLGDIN

PxRDL2 [2] = target: T2, PxRDL2; assay: two-electrode voltage clamp, Xenopus laevis oocytes; type: cell-based

IC50 (PxRDL2 [1]) | SMILES | IC50 (PxRDL1) | IC50 (PxRDL2 [2])
> 30 µM | CCOC(=O)C1(C(=O)OCC)Nc2c([S+]([O-])C(F)(F)F)c(C#N)nn2-c2c(Cl)cc(C(F)(F)F)cc21 (stereo not drawn) [4a, diethyl 9-chloro-2-cyano-7-(trifluoromethyl)-3-((trifluoromethyl)sulfinyl)pyrazolo[1,5-α]quin azoline-5,5(4H)-dicarboxylate] | 2.02 µM | 
 | Cc1cc(C2=NOC(c3cc(Cl)cc(Cl)c3)(C(F)(F)F)C2)ccc1C(=O)NCC(=O)NCC(F)(F)F (stereo not drawn) [fluralaner, 4-[5-(3,5-dichlorophenyl)-5-(trifluoromethyl)-4H-1,2-oxazol-3-yl]-2-methyl-N-[2-oxo-2-(2,2,2-trifluoroethylamino)ethyl]benzamide] | 0.01 µM | 0.018 µM
 | CON=CNC(=O)c1ccc(C2=NOC(c3cc(Cl)cc(Cl)c3)(C(F)(F)F)C2)cc1C (stereo not drawn) [fluxametamide, 4-[5-(3,5-dichlorophenyl)-5-(trifluoromethyl)-4H-1,2-oxazol-3-yl]-N-[(E)-methoxyiminomethyl]-2-methylbenzamide] | 0.02 µM | 0.017 µM
